Patent publication US20090324760A1, “Hair tonic” (priority 2005, published 2009)

Test system: C3H mice
Test: Hair-growth test on shaved back of C3H mice
Format: in vivo
Conditions: 0.2 mL per mouse twice a day for two weeks, measured on sixteenth day
Method: The hair-growth promoting effect of the hair tonic of the invention was evaluated according to the following hair-growth test. Commercially available acteoside (manufactured by ChromaDex Corp.) or the crude acteoside according to example 1 was dissolved in a 55% wt aqueous ethanol solution. Comparative example 1 was carried out using this aqueous ethanol solution as the reference.
C3H mice (males of 8-week age, average weight 35 g, a group of 10 mice) were used as test animals. Their back (2 cm×4 cm) was shaved to prepare a test area and from the following day onwards, each test sample (0.2 mL per mouse) was applied twice a day(morning and evening) for two weeks. On the sixteenth day, a picture of the test area was taken with a video camera, and hair-growth was measured with an image analyzer. The hair-growth promoting effect was evaluated as hair-growth rate (%) calculated according to the equation reported below.
[Hair-growth rate (%)]=[area of the hair-growth portion]/[test area]×100

Acteoside [Example 2]
Hair growth rate (sample concentration 0.1 % by weight in 55% wt aqueous ethanol): 61.05%
Hair growth rate (sample concentration 0.2 % by weight in 55% wt aqueous ethanol): 65.02%
